In series [1] the test system is HCV replicon 1a (L31V) mutant. Description: Cell-based HCV replicon assay (TaqMan), genotype 1a mutant L31V. Conditions: Hepatitis C virus, 72 h, read-out: HCV replicon EC50 1a (L31V). A digest of the protocol:
(§1)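 Replicon cells seeded at 5000 cells/well with compound (10 serial 2-fold dilutions from 250 μM to 1 μM top dose; 0.5% DMSO, 5% FBS) and lysed on day 3. Replicon RNA quantified by multiplex TaqMan RT-PCR (NS5B amplicon, GAPDH control); ΔCT versus concentration fitted to sigmoid dose-response. Chimeras carry patient-isolate NS5A.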
On the technique in general: In antiviral work, replicon cells carry a viral genome segment that copies itself.

Series [2] concerns HCV chimeric replicon with NS5A of genotype 4a (DQ41878). Description: Cell-based HCV replicon assay (TaqMan), chimeric replicon genotype 4a (DQ41878). Conditions: Hepatitis C virus, 72 h, read-out: HCV replicon EC50 4a (DQ41878). The essentials: as §1
A short description of series [3]: Pharmacokinetic analysis in rats. As to conditions: Rat, dihydrochloride salt, 5 mpk/PO, 2.5 mpk/IV. It counts as in vivo, Male Sprague-Dawley rats. The method, then:
(§2) Various pharmacokinetic parameters for compound 56 were measured in rats, dogs and monkeys as described below.
Male Sprague-Dawley rats (Charles River, Co.) were pre-cannulated (femoral artery) in order to facilitate precise blood sampling times, to increase throughput and to reduce the stress on the animals caused by serial bleedings. Following an overnight fast, rats were dosed with the dihydrochloride salt of compound 56 orally at 5 mg/kg as a suspension in 0.4% hydroxylpropyl methylcellulose (HPMC) or intravenously at 2.5 mg/kg as a solution in 20% hydroxypropyl-β-cyclodextrin (20% HPβCD). Blood was collected into heparin-containing tubes serially from each animal at 0.25, 0.5, 1, 2, 4, 6, 8, 24 and 48 hr (PO), and 0.167, 0.25, 0.5, 1, 2, 4, 6, 8, 24 and 48 hr (IV) post-dosing and centrifuged to generate plasma. The plasma samples were stored at […] until analysis.
(§3) Collected plasma samples were analyzed for the presence of compound 56 using LC-MS/MS as described below.
(§4) The HPLC/API-MS/MS system for the example data consisted of a HPLC pumping system and a auto sampler with the sample tray refrigeration option connected directly to a triple quadrupole mass spectrometer with an API source. Typical HPLC methods for the example data was based on a fast gradient of two solvents: solvent A consisted of 0.1% formic acid in water, and solvent B consisted of 0.1% formic acid in acetonitrile. A fast linear gradient (start at 90% A for 0.2 min, ramp to 95% B from 0.2 to 0.5 min, hold at 95% B […], then ramp back to 90% A from 1.0 to 1.1 min, then hold at, […] from 1.1 to 1.2 min) was used. The flow rate for the HPLC system was set to 1 mL/min throughout the HPLC gradient; the HPLC column was a Halo C18 column (2.7 micron particle size, 50×2.1 mm). The example compounds were analyzed by positive ion atmospheric pressure chemical ionization tandem mass spectrometry (APCI-MS/MS). As a general procedure, selected reaction monitoring (SRM) methods were developed for each compound prior to analysis of the plasma samples. Normally, the individual SRM transitions were based on a fragmentation from the protonated molecule ([MH].) to a characteristic product ion.
(§5) Using the methods described above, the following pharmacokinetic parameters were calculated in rats, dogs and monkeys and the results are summarized in the table below.

The test system of series [4] is HCV replicon 1a (Y93H) mutant. Put plainly: Cell-based HCV replicon assay (TaqMan), genotype 1a mutant Y93H. Conditions: Hepatitis C virus, 72 h, read-out: HCV replicon EC50 1a (Y93H). A digest of the protocol:
as §1

Series [5] is described as follows: Pharmacokinetic analysis in monkeys. Format: in vivo, male cynomolgus monkeys. Conditions: Monkey, dihydrochloride salt, 2 mpk/PO, 1 mpk/IV. As to the method:
as §2
Following an overnight fast, male cynomolgus monkeys were dosed with the dihydrochloride salt of compound 56 orally at 2 mg/kg as a suspension in 0.4% hydroxylpropyl methylcellulose (HPMC) or intravenously at 1 mg/kg as a solution in 20% hydroxypropyl-β-cyclodextrin (20% HPβCD). For oral dosing, the animals dosed by oro-gastric intubation. Monkeys were fed approximately 1 hour before dosing and 4 hours after dosing. Blood samples were collected from the saphenous and/or cephalic vein at 0.25, 0.5, 1, 2, 4, 6, 8, 12, 24, 48, and 72 (PO), and 0.167, 0.25, 0.5, 1, 2, 4, 6, 8, 12, 24, 48, and 72 hrs (IV) post-dosing and centrifuged to generate plasma. The plasma samples were stored at […] until analysis.
as §3, §4, §5

Where [6] appears, read: dose-normalized AUC between PO and IV.

For the molecule `COC(=O)N[C@H](C(=O)N1CC(F)(F)C[C@H]1c1ncc(-c2ccc(-c3ccc4c(ccc5nc([C@@H]6C[Si](C)(C)CN6C(=O)[C@@H](NC(=O)OC)C(C)C)[nH]c54)c3)cc2)[nH]1)C(C)C` [Compound 56], the EC50 – broadly, the concentration giving half of the maximal effect – in series [1] stood at 16 nM; in series [2], 0.02 nM; in series [4] it was 46 nM. Besides, the “Effective Half-Life” value in series [3] stood at 7.6 h; in series [5] it was 17 h. For the same molecule, the “Systemic Clearance” value was 5.6 mL/min/kg in series [3] and 1.2 mL/min/kg in series [5]. In addition, the “Volume of Distribution” value amounted to 3.7 L/kg in series [3] and 1.7 L/kg in series [5]. Also, the “Oral Bioavailability” value in series [3] (setting [6]) worked out at 28%; in series [5] (setting [6]) it was 11.7%.
